A short description of data set [1]: logP determination by HPLC on a reversed-phase column (C18), EEC Directive 79/831 Annex V.A8. Type of data set: physicochemical. The conditions noted are these: LC-MS in the acidic range, pH 2,7, 0,1 % aqueous formic acid and acetonitrile, 55°C, read-out: logP (HCOOH). As to the method: Die Messung der logP Werte erfolgt gemäß EEC Directive 79/831 Annex V.A8 durch HPLC (High Performance Liquid Chromatography) an einer Phasenumkehrsäule (C 18). Temperatur: 55°C.
Die Bestimmung mit der LC-MS im sauren Bereich erfolgt bei pH 2,7 mit 0,1 % wässriger Ameisensäure und Acetonitril (enthält 0,1% Ameisensäure) als Eluenten; linearer Gradient von 10% Acetonitril bis 95% Acetonitril. In der Tabelle logP (HCOOH) genannt.
Die Eichung erfolgt mit unverzweigten Alkan-2-onen (mit 3 bis 16 Kohlenstoffatomen), deren logP-Werte bekannt sind (Bestimmung der logP-Werte anhand der Retentionszeiten durch lineare Interpolation zwischen zwei aufeinander folgenden Alkanonen).

For another data set, the system named is Phaedon cochleariae. In words: Phaedon cochleariae spray test. The format is in vivo. The conditions noted are these: foliar, 168 h, after 7 days, sprayed Chinese cabbage leaf discs (Brassica pekinensis) with larvae, 100 % = all beetle larvae killed, read-out: Wirkung. From the text: Lösungsmittel: • 78,0 Gewichtsteile Aceton • 1,5 Gewichtsteile Dimethylformamid Emulgator: Alkylarylpolyglykolether
(§1) Zur Herstellung einer zweckmäßigen Wirkstoffzubereitung löst man 1 Gewichtsteil Wirkstoff mit den angegebenen Gewichtsteilen Lösungsmittel und füllt mit Wasser, welches eine Emulgatorkonzentration von 1000 ppm enthält, bis zum Erreichen der gewünschten Konzentration auf. Zur Herstellung weiterer Testkonzentrationen wird mit emulgatorhaltigem Wasser verdünnt.
Chinakohlblattscheiben (Brassica pekinensis) werden mit einer Wirkstoffzubereitung der gewünschten Konzentration gespritzt und nach dem Abtrocknen mit Larven des Meerrettichblattkäfers (Phaedon cochleariae) besetzt.
Nach 7 Tagen wird die Wirkung in % bestimmt. Dabei bedeutet 100 %, dass alle Käferlarven abgetötet wurden; 0 % bedeutet, dass keine Käferlarven abgetötet wurden.

The test system of another data set is Myzus persicae. As to the kind of experiment: Myzus persicae spray test. The format is in vivo. The settings on record: foliar, 120 h, after 5 days, sprayed Chinese cabbage leaf discs (Brassica pekinensis) infested with all stages, 100 % = all aphids killed, read-out: Wirkung.
Description: Lösungsmittel: • 78 Gewichtsteile Aceton • 1,5 Gewichtsteile Dimethylformamid Emulgator: Alkylarylpolyglykolether
as §1
Chinakohlblattscheiben (Brassica pekinensis), die von allen Stadien der Grünen Pfirsichblattlaus (Myzus persicae) befallen sind, werden mit einer Wirkstoffzubereitung der gewünschten Konzentration gespritzt.
Nach 5 Tagen wird die Wirkung in % bestimmt. Dabei bedeutet 100 %, dass alle Blattläuse abgetötet wurden; 0 % bedeutet, dass keine Blattläuse abgetötet wurden.

Drawing on patent EP3241830A1, “CONDENSED BICYCLIC HETEROCYCLIC DERIVATIVES AS PESTICIDES” (Bayer CropScience Aktiengesellschaft, priority 2016, dated 2017), this text covers chromatographic logP and mortality for three molecules.

SMILES strings stand for the structures.

In the case of `CCS(=O)(=O)c1c(-c2nc3cc(C(F)(F)F)ncc3n2C)n(C)c2cc(Cl)ccc12` [Bsp. I-1, 2-(6-Chlor-3-ethylsulfonyl-1-methyl-indol-2-yl)-3-methyl-6-(trifluormethyl)imidazo[4,5-c]pyridin], in data set [1], the chromatographic logP was 3.11. Also, the mortality at 500 g/ha in the data set on Phaedon cochleariae came out at 100%; with Myzus persicae, 90%. In the case of `CCSc1c(-c2nc3cc(C(F)(F)F)ncc3n2C)n(C)c2cc(Cl)ccc12` [Bsp. I-2, 2-(6-Chlor-3-ethylsulfanyl-1-methyl-indol-2-yl)-3-methyl-6-(trifluormethyl)imidazo[4,5-c]pyridin], in data set [1], the chromatographic logP was found to be 4.51. Same read-out and setting: the same measure for `Cn1c(-c2c(Cl)c3ccc(Cl)cc3n2C)nc2cc(C(F)(F)F)ncc21` [Bsp. V-1, 2-(3,6-Dichlor-1-methyl-indol-2-yl)-3-methyl-6-(trifluormethyl)imidazo[4,5-c]pyridin]: 4.23.
